In patent US20220305003A1, “METHODS OF TREATING CANCER WITH AN INHIBITOR OF ZNF827” (CHILDREN'S MEDICAL RESEARCH INSTITUTE, priority 2019, published 2022):

T1: ZNF827 ZnF1-9 deleted (Homo sapiens)
T1 chain: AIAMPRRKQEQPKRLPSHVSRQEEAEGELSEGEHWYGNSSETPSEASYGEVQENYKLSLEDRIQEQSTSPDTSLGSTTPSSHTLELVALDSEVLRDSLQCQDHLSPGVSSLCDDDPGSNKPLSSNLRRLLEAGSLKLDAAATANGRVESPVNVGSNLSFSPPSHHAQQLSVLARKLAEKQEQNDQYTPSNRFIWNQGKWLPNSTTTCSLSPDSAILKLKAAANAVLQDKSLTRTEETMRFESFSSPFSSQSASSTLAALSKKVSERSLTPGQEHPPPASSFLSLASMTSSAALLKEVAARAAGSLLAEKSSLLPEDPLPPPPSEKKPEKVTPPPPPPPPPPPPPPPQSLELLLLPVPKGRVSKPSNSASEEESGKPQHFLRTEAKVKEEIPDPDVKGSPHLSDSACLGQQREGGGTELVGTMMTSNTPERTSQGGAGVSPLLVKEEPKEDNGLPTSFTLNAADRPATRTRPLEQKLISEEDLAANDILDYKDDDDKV


Experiments:
ATR-CHK1 pathway = test: Western blot of ATR downstream effectors (p-CHK1 S345, p-RPA2 S33, pCHK2); format: cell-based; details: U-2 OS
Procedure: Protein was extracted from 10^6 cells per sample by vigorous pipetting and incubation at room temperature for 30 minutes in 100 μL of EDTA-free 4× LDS buffer (106 mM Tris-Cl, 141 mM Tris-Base, 40% Glycerol, 2% LDS, 0.075% SERVA Blue G50) supplemented with 2.5% Benzonase® nuclease 25 U/μL (Novagen, Merck Millipore) and 2% beta-mercaptoethanol (Sigma). Following protein extraction, all samples were denatured at 90° C. for 15 minutes before resolving on NuPAGE® Novex® 4-12% Bis-Tris Mini Gels (Invitrogen) with 1×10^5 cells (10 μL) loaded per lane in NuPAGE® MES SDS running buffer (Invitrogen) at 200 V for 50 minutes. Gels were transferred onto a PVDF membrane (Immobilon-P, Millipore) in transfer buffer (190 mM glycine, 25 mM Tris and 10% methanol) at 100 V for 60 minutes. Membranes were stained with Ponceau-S for 30 minutes, de-stained then blocked for 1 hour at room temperature in 5% skim milk dissolved in PBS with 0.1% Tween-20 (PBST) or TBS with 0.1% Tween-20 (TBST) for phosphorylated proteins. Membranes were cut into appropriate segments based on the size markers, with each segment incubated with antibodies for proteins of interest diluted in 0.5% skim milk in PBST/TBST or 5% BSA overnight at 4° C. (Refer to Table 4 for the list of antibodies). Blots were then washed for 3×5 minutes in PBST/TBST followed by incubation for 1 hour at room temperature with appropriate secondary antibodies (See Table 5) diluted 1:5000 in 0.5% skim milk or 5% BSA in PBST/TBST. Blots were washed for 3×5 minutes in PBST/TBST before incubation with SuperSignal West Pico Chemiluminescent Substrate (ThermoFisher Scientific) for 5 minutes at room temperature. Blots were then exposed to a Luminescent Image Analyser (LAS-4000, Fujifilm).
To investigate the precise function of ZNF827 in the ATR pathway, the effect of ZNF827 depletion on the downstream effectors of ATR was examined. To activate ATR, U-2 OS cells were treated with DNA damage and replication stress inducing agents topotecan 2 μg/mL for 24 hours or aphidicolin 1 μM for 20 hours. […] Phosphorylation of CHK2 was not affected by ZNF827 depletion, further supporting that the role of ZNF827 in DNA damage and repair is independent of ATM (FIG. 6d).

U-2 OS cells = test: Topotecan dose-response of cell proliferation after siRNA transfection (IncuCyte); format: cell-based; details: topotecan 0.0039-1 μg/mL, 180 hours, compared to scrambled control
Procedure: U-2 OS cells were plated in a 96-well plate at 4000 cells per well. 24 hours following plating, cells were transfected with either scrambled or ZNF827 siRNAs (Table 2) using Lipofectamine RNAiMAX transfection reagent (ThermoFisher Scientific). 24 hours post siRNA transfection, cells were treated with topotecan at a range of concentrations including 0.0039, 0.0078, 0.0156, 0.03125, 0.0625, 0.125, 0.25, 0.5 and 1 μg/mL in triplicates. DMSO was used as untreated control. Immediately after treatment addition, cells were imaged using the IncuCyte® live cell imaging system at 2-hour intervals for 180 hours. Cell proliferation was measured by phase object confluence calculated by the IncuCyte® analysis software. For IC50s, cell proliferation data were analysed in GraphPad Prism 8 to obtain area under curve (AUC), followed by normalisation and non-linear regression using the log(inhibitor) vs. normalised response -variable slope' function.

ZNF827 ZnF1-9 deleted = biological target: T1, ZNF827 ZnF1-9 deleted; test: EMSA; interaction abolished; details: tags: HaloTag (pHTN), expressed in HEK 293T, tag removed by HaloTEV cleavage; label: 32P (gamma)
Procedure: Purified proteins were quantified using a BCA assay using the Pierce™ BCA Protein Assay Kit according to the manufacturer's instructions. Equal amounts of purified proteins were incubated in binding buffer (20 mM HEPES-KOH, pH7.9, 100 mM KCl, 0.8 mM ZnCl₂, 0.2 mM EDTA, 5% glycerol, 0.5 mM DTT and 0.5 mM PMSF) with 6.25 μg/mL poly (dI:dC) and 50 ng/μL BSA on ice for 20 minutes. ˜0.12 nM (˜2.5 fmol) γ-³²P labelled DNA oligonucleotide (see Table 3) probes were added to samples and incubated on ice for another 30 minutes. Binding reactions were loaded onto an 8% native acrylamide/bisacrylamide (19:1, Biorad) gel pre-run at 100V in 0.5× TB buffer (89 mM Tris, 89 mM boric acid) for 20 minutes. Gels were electrophoresed at 150 V for 150 minutes at 4° C., dried at 65° C. for 45 minutes, and then exposed to a Phosphor screen overnight. Gel images were obtained by scanning the screens with a Typhoon FLA9500 Imager (GE Life Sciences).

[1] = agent alone (topotecan 2 μg/mL 24 hours, aphidicolin 1 μM 20 hours, or siRNA knockdown in unchallenged cells)

Row | Molecule | phosphorylation of CHK1 S345 (ATR-CHK1 pathway; [1]) | phosphorylation of RPA S33 (ATR-CHK1 pathway; topotecan 2 μg/mL 24 hours) | sensitivity to topotecan treatment (cell proliferation dose-response) (U-2 OS cells) | phosphorylation of CHK1 S345 (ATR-CHK1 pathway; 72 hr siRNA knockdown in topotecan- or aphidicolin-treated cells) | phosphorylation of RPA S33 (ATR-CHK1 pathway; 72 hr siRNA knockdown in topotecan-treated cells) | phosphorylation of CHK2 (ATR-CHK1 pathway; 72 hr siRNA knockdown, topotecan 2 μg/mL 24 hr or DMSO) | binding result (ZNF827 ZnF1-9 deleted)
1 | CC[C@@]1(O)C(=O)OCc2c1cc1n(c2=O)Cc2cc3c(CN(C)C)c(O)ccc3nc2-1 [topotecan] | became phosphorylated at S345 | phosphorylated at S33 |  |  |  |  | 
2 | siZNF827: Stealth RNAi siRNA ZNF827HSS135819 duplex oligoribonucleotides (Invitrogen), SEQ ID NO: 12 and 13 (chain 1 GGGCAGUCUUCUGGCUGAGAAAUCA; chain 2 UGAUUUCUCAGCCAGAAGACUGCCC; listed as RNA, further chemistry not given here) | reduced baseline phosphorylation of CHK1 S345 |  | markedly increased sensitivity to topotecan treatment | markedly suppressed | markedly suppressed | not affected | 
3 | TTAGGGTTAGGGTTAGGG (ssDNA) [ss telomeric G rich oligo] |  |  |  |  |  |  | no binding
